Results from US20120183605A1 (priority 2009, published 2012).

What was measured:
[1] = Steady-state pharmacokinetics in healthy young and elderly subjects
[2] = system: ventricular repolarization, as measured by prolongation of the QT interval; assay: QT interval prolongation study in healthy young and elderly subjects
[3] = steady state (Days 7-9), ≧18 to ≦45 yrs (N = 16)

Row | SMILES | AUC(ss), least squares mean [1, 3] [ng·h/mL] | Tmax(ss), least squares mean [1, 3] [s] | QTcI difference between the elderly and young between quinine and placebo (baseline adjusted) ([2]; 30 minutes post dose) [ms] | QTcI difference between the elderly and young between quinine and placebo (baseline adjusted) ([2]; 48 hours post dose) [ms] | increase of QTcI over placebo ([2]; for the first 6 hours after dosing) | subjects with a QTcI greater than 500 msec ([2]; in vivo) | subjects with a maximum QTcI change from baseline of greater than 60 msec ([2]; in vivo) | maximal increase of QTcI over placebo ([2]; one hour post dose) [ms] | upper bound of the one sided confidence interval of maximal QTcI increase over placebo ([2]; one hour post dose) [ms] | QTcI difference between the elderly and young, mean increase ([2]; over 48 hours) [ms] | effect of age on QTc interval prolongation ([2]; patients ≧65 years v. younger patients) | increase of QTcI over placebo ([2]; up to 14 hours after dosing) | increase in rate and extent of absorption, elderly compared to younger subjects ([1]; after formulation 3A, steady state) | T1/2, least squares mean ([1]; steady state (Days 7-9), ≧65 to ≦80 yrs (N = 15)) [h]
1 | C=C[C@H]1C[N@@]2CC[C@H]1C[C@H]2[C@H](O)c1ccnc2ccc(OC)cc12 [Quinine, cinchonan-9-ol, 6′-methoxy-, (8α,9R)-] | 46100 | 7780 | 10.06 | -1.92 | above 20 msec | No subject | No subject | 28.3 | 31.83 | 3.92 | did not indicate that patients ≧65 years of age have significantly greater risk of QTc prolongation than younger patients | above 10 msecs | – | –
2 | C=C[C@@]1(O)CN2CC[C@H]1C[C@H]2[C@H](O)c1ccnc2ccc(OC)cc12 [3-OH Quinine, 3-hydroxyquinine] | – | – | – | – | – | – | – | – | – | – | – | – | approximately 25% | 18.7
